We go through eight compounds from PubChem BioAssay (NCI).

Common to all, as to experiment: NCI tumour cell line growth inhibition, 48 h
Assay [1] concerns HL-60(TB) leukemia.
Assay [2] concerns A549 NSCLC.
In assay [3] the test system is HS 578T breast.
For assay [4], the system named is HCT-15 colon.
Assay [5] concerns NCI/ADR-RES ovarian.
In assay [6] the test system is BT-549 breast.
Assay [7] relates to OVCAR-8 ovarian.
Assay [8] concerns HOP-92 NSCLC.
In assay [9] the test system is OVCAR-4 ovarian.
Assay [10] has as its system RXF 393 renal.

Several values for one entry are separate records, joined by “and”; a condition that tells them apart may be missing. Equal entries are not always repeated.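 Following 48 hours of exposure in 96-well plates, responses at five concentrations were used to interpolate endpoints linearly. The concentration for 50% growth inhibition is given as GI50. TGI is the concentration that stops growth completely.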 Bounds are passed on as bounds.

Consider `CCCCC(OC(=O)c1ccc(N)cc1)C(=O)Nc1nc(CC(=O)OCC)cs1` (centres undefined), for which the GI50 in assay [1] was 35.1 µM; in [2], 37.5 µM; in assay [3] it was 43.4 µM; in assay [4], 40.2 µM; in assay [5], 33.9 µM; in assay [6] it was 34.5 µM. Further, the GI50 in assay [7] was 40.4 µM; in assay [8], 37.5 µM; in assay [9] it was 29.8 µM; in assay [10], 38.1 µM. In addition, the TGI in assay [1] is 95.1 µM; in [2], > 100 µM; in assay [3], > 100 µM; in assay [4], > 100 µM; in assay [5], > 100 µM; in [6], > 100 µM. Moreover, the TGI in [7], in assay [8], in [9] and in assay [10] was > 100 µM in each case.

For the compound `O=C(Nc1cccc(C(F)(F)F)c1)c1ccc(NC2=C(Cl)C(=O)N(Cc3ccccc3)C2=O)cc1`, the GI50 in assay [1] was 2.08 µM; in assay [2] it was 34.1 µM; in [3] it was 22.1 µM; in assay [4], 4.41 µM; in assay [5] it was 10.8 µM; in [6] it was 1.25 µM. The GI50 in [7] was 38.4 µM; in assay [8], 3.93 µM; in assay [9], 25.8 µM; in assay [10], 29.4 µM. The TGI in [1] was 5.64 µM; in assay [2] it was 84.9 µM; in [3], > 100 µM; in [4], 18.9 µM; in assay [5], 25.4 µM; in [6], 5.49 µM. Moreover, the TGI in [7] was > 100 µM; in assay [8], 14.2 µM; in assay [9], 54.7 µM; in assay [10], 64.8 µM.

Consider `CCOC(=O)c1c(-c2ccc(OC)c(O)c2)c(C#N)c(=S)n(C2OC(COC(C)=O)C(OC(C)=O)C(OC(C)=O)C2OC(C)=O)c1-c1ccccc1` (centres undefined), for which the GI50 in [1] is 43.5 µM and > 100 µM; in assay [3] it was 38.8 µM and > 100 µM; in assay [4], 43.1 µM and > 100 µM; in [5], 48.6 µM and > 100 µM; in [9], 47.2 µM and > 100 µM. Also, the TGI was > 100 µM in assay [1]; > 100 µM in [2]; > 100 µM in assay [3]; > 100 µM in assay [4]; > 100 µM in [5]; 64 µM in assay [6]. The TGI in assay [7] is > 100 µM; in assay [8] it was 87.9 µM and > 100 µM; in [9] it was > 100 µM; in [10] it was > 100 µM.

For `CC1(C)CCc2c(c(N=Nc3ccccc3F)c3ccccc3c2O)O1`, the GI50 was > 100 µM in [1]; 34 µM in assay [2]; 28.6 µM in assay [3]; 78.3 µM in assay [4]; 20.1 µM in assay [5]; 33.5 µM in [6]. Moreover, the GI50 in assay [7] is 23.3 µM; in assay [8], 92.6 µM; in assay [9], 66.2 µM; in [10] it was 79 µM. In addition, the TGI in [1] was > 100 µM; in [2], > 100 µM; in assay [3], 99.7 µM; in [4], > 100 µM; in assay [5], 47.1 µM; in [6], > 100 µM. Also, the TGI in [7] is 51.4 µM; in [8] it was > 100 µM; in assay [9] it was > 100 µM; in [10] it was > 100 µM.

Consider `O=C(c1ccc2ccccc2c1)c1c(C(F)(F)F)n([O-])c2cc(C(F)(F)F)ccc2[n+]1=O`, for which the GI50 is 1.54 µM in [1]; 1.66 µM in assay [2]; 1.69 µM in assay [4]; 2.08 µM in [5]; 1.43 µM in assay [6]; 2.02 µM in [7]. Moreover, the GI50 was 1.39 µM in [8], 1.22 µM in assay [9] and 1.5 µM in [10]. Further, the TGI is 3.59 µM in assay [1]; 3.51 µM in assay [2]; > 22.2 µM in assay [3]; 3.4 µM in [4]; 4.8 µM in [5]; 2.9 µM in [6]. Also, the TGI was 5.2 µM in [7], 2.79 µM in assay [8], 3.51 µM in assay [9] and 3.16 µM in [10].

For `FC(F)(F)c1cc(NC(=S)N2c3ccccc3-n3cccc3C2c2cccnc2)cc(C(F)(F)F)c1` (centres undefined), the GI50 in assay [1] was 3.87 µM; in assay [2], 9.25 µM; in assay [3], 12.5 µM; in assay [4], 4.76 µM; in assay [5] it was 4.18 µM; in [6], 8.96 µM. Further, the GI50 in [7] is 4.65 µM; in [8], 2.93 µM; in assay [9], 6.24 µM; in [10], 11 µM. The TGI in assay [1] was 21.4 µM; in [2], 26.8 µM; in assay [3], 40.6 µM; in assay [4], 27.7 µM; in assay [5], 18.2 µM; in [6] it was 45.7 µM. For the same compound, the TGI in assay [7] turned out to be 15.3 µM; in assay [8], 7.87 µM; in [9], 23.8 µM; in assay [10] it was 35.8 µM.

In the case of `O=C1OC(c2ccc(Cl)cc2)=N/C1=C\c1ccccc1`, the TGI in assay [1], in [2], in [3], in assay [4], in assay [5] and in assay [6] was > 100 µM each time. The TGI in [7], in assay [8], in assay [9] and in assay [10] was > 100 µM each time.

As to `CC1=C2[C@@H](CC1)[C@]1(C)O[C@@](C(C)C)(C[C@H]1OC(=O)CO)[C@H]2OC(=O)CCCc1ccccc1`, the GI50 in assay [1] is 2.21 µM; in assay [2] it was 6.96 µM; in [3] it was 2.43 µM; in assay [4], 9.02 µM; in assay [5], 3.87 µM; in [6], 4.44 µM. Moreover, the GI50 in [7] was 4.58 µM; in assay [8] it was 3.86 µM; in assay [9] it was 11.9 µM; in [10], 11.9 µM. Besides, the TGI in assay [1] was 5.27 µM; in assay [2], 41.5 µM; in assay [3] it was 9.23 µM; in assay [4], 22.2 µM; in assay [5] it was 20 µM; in [6], 15.7 µM. Besides, the TGI in [7] stood at 26.8 µM; in assay [8], 18 µM; in assay [9], 29.1 µM; in assay [10], 25.6 µM.
